# Earlier results as cited in US9075045B2, “Cell-based detection of APF through its interaction with CKAP4 for diagnosis of interstitial cystitis” (THE COMMONWEALTH MEDICAL COLLEGE, priority 2008, dated 2015).
# Read-outs that look alike come from different tables or passages of the source.
molecule,measurement,setting,value
C[S+](C)[O-] [dimethyl sulfoxide],effect on IC symptoms,bladder instillation every week or two for 6 to 8 weeks,improve symptoms temporarily
Bacillus Calmette-Guerin,effect on IC symptoms,intravesicular agent,improve symptoms
Pentosan polysulfate sodium,improved symptoms in % of patients,given orally (100 mg three times a day),30%
